Assay results reported in US20240058335A1, “METHODS FOR TREATMENT OF CANCER USING ABL INHIBITORS AND DRUGS TARGETING THE MEVALONATE PATHWAY” (Duke University, priority 2021, published 2024).
Where two headings read alike, the source gives them in different places.

How the values were obtained:
PC9 GR4 cells [1] = test: Cell viability dose-response assay (CellTiter-Glo), IC50 calculation; assay type: cell-based, human
PC9 cells [2] = test: cells; details: Homo sapiens, PC-9, read-out: Calculated IC50
PC9 BrM3 cells = test: Cell viability dose-response assay (CellTiter-Glo), IC50 calculation; assay type: cell-based, human; details: read-out: Calculated IC50
[3] = test system: lung cancer cells (PC9, PC9 GR4, H460, H358); test: Seahorse XF Analyzer Mito Stress Test (OCR: basal respiration, maximal respiration, ATP production); assay type: cell-based, human; details: for mitochondrial function (basal respiration, maximal respiration, ATP production; OCR): IC50 doses, 24 hours, PC9, PC9 GR4, H460, H358; for mitochondrial respiration in cells treated with ABL001 and simvastatin (MVA rescue and its reversal): PC9 GR4, added to ABL001 + simvastatin (inhibitors with MVA)
Excerpt: (FIGS. 2A-2D) Seahorse XF Analyzer Mito Stress Test analysis of mitochondrial basal respiration, maximal respiration, and ATP production as measured by changes in oxygen consumption rate (OCR). […] (FIG. 2E) Mitochondrial basal respiration, maximal respiration, and ATP production as measured by Seahorse XF Analyzer's Mito Stress Test for PC9 cells harboring shRNAs against ABL1/ABL2 (shAA) and non-targeting control (shSCR). (FIGS. 2F-2G) Mitochondrial ROS (MitoROS) release as measured by FACS analysis of median fluorescent intensity (MFI) using Mitosox probe. […] Data are mean±SEM. […] Seahorse XF Analyzer Mito Stress Test analysis of mitochondrial basal respiration, maximal respiration, and ATP production as measured by changes in oxygen consumption rate (OCR) in the indicated lung cancer cells: (FIG. 8A) PC9; (FIG. 8B) PC9 GR4; (FIG. 8C) H460. […] Doses correspond to IC50 dose for each drug in the corresponding cell line. In each graph, for each of Basal Respiration, Maximal Respiration, and ATP production, data is shown from left to right for DMSO, GNF5, and Nilotinib. […] Cells were treated with IC50 doses for 24 hours (n=3). Data are mean±SEM. […] SEAHORSE MEASUREMENTS. Basal and maximal oxygen consumption rate and ATP production were measured using a Mito Stress test Kit and XF96 Extracellular Flux Analyzer (Seahorse Bioscience), according to manufacturer's instructions. Cells were plated in XF96 plates at 10,000 cells per well on Day 0. […] The plate was incubated in a non-CO2 incubator at 37° C. for 1 hr to equilibrate.

[4] = cited from earlier work
[5] = test system: PC9, PC9 GR4 and H460 cells; test: MitoSOX staining, mitochondrial ROS by FACS; assay type: cell-based, human; details: EGFR mutant PC9 and PC9 GR4 cells, IC50 doses, 24 hours
[6] = test system: lung cancer cells (PC9, PC9 GR4, PC9 BrM3, H460, H358); test: 72 hr growth inhibition / cell viability assay with drug combinations and metabolite rescue; assay type: cell-based, human; details: for cell survival in the presence of statins: PC9-BrM3, sub-therapeutic doses, 72 hrs; for cell survival on co-treatment with ABL001: PC9 GR4, PC9 and H460 cells; for rescue of cell survival in cells co-treated with ABL001 and simvastatin: metabolite supplement, 72 hours, PC9 GR4, PC9, H460
PC9 and H460 cells = test: MitoTracker staining, mitochondria number and morphology; assay type: cell-based, human; details: IC50 dose, 24 hours
Method: (FIG. 9A) Mitochondrial basal respiration, maximal respiration, and ATP production as measured by changes in oxygen consumption rate (OCR) from Seahorse XF Analyzer Mito Stress Test analysis for H460 cells harboring shRNAs against ABL1/ABL2 (shAA) and non-targeting control (shSCR). (FIG. 9B) FACS analysis of mitochondrial ROS (MitoROS) using mitosox probe in H460 cells treated with 15 NM GNF5, 15 NM ABL001, and 0.5 nM Docetaxel for 24 hours. n=3 (FIGS. 9C-9D) MitoROS in H460 AA knockdown cells (FIG. 9C) or PC9 AA knockdown cells (FIG. 9D). (FIGS. 9E-9F) M[…] to analyze mitochondria number in H460 cells with 15 NM GNF5 (FIG. 9E) or PC9 cells treated with 10 NM GNF5 (FIG. 9F). n=3 (FIGS. 9G-9H) M[…] of H460 AA knockdown cells (FIG. 9G) or PC9 AA knockdown cells (FIG. 9H). n=3 Statistical analysis was calculated using unpaired two-tailed t test *p<0.05, Data are mean±SEM. (FIG. 9I) H460 cells stained with Mitotracker and Hoescht 33342 following treatment with IC50 dose for each drug for 24 hours. Image quantification showing mitochondrial length×width plotted for thousands of mitochondria from >10 cells across at least two independent experiments. Changes were not statistically significant.
M[…] . MitoTracker Red CMXRos was purchased from Thermofisher (cat. M7512). […] The samples were analyzed using flow cytometer BD FACS Canto II. […]

H358 cells = test: Cell viability dose-response assay (CellTiter-Glo), IC50 calculation; assay type: cell-based, human
H460 cells = test: as above; assay type: cell-based, human
PC9 cells [7] = details: read-out: Calculated IC50, dose-response assay
PC9 GR4 cells [8] = test: Real-time quantitative PCR of BCL-2 family mRNAs; assay type: cell-based, human; details: PC9 GR4, metabolite supplement, 24 hours
Method: (FIG. 5E) Immunoblots of cytochrome c, cleaved PARP, β-catenin, GAPDH, and β-Tubulin. […] Cytoplasmic, membrane, and whole cell fractions are shown for drug treatments. […] Data are mean±SEM. REAL-TIME QUANTITATIVE PCR. RNA was isolated from subconfluent monolayers of cancer cells using the RNeasy RNA isolation kit (QIAGEN), and cDNA synthesis was performed using oligo(dT) primers and M-MLV reverse transcriptase (Invitrogen). RT-qPCR was performed in triplicate wells using iTaq Universal SYBR Green Supermix (Bio-Rad). Primers used in this study were purchased from Sigma Aldrich. Analysis of real-time data was collected using a Bio-Rad CFX384 machine and CFX Maestro software. Expression levels of each gene were normalized to GAPDH control housekeeping genes using the ddCT algorithm.

[9] = test system: lung cancer cells (PC9, PC9 GR4, PC9 BrM3, H460); test: Immunoblotting of apoptosis, prenylation and cytochrome c markers; assay type: cell-based, human; details: 24 hr
[10] = Homo sapiens, PC9 GR4, dose-response assay, read-out: Calculated IC50
[11] = Homo sapiens, PC9 BrM3, dose-response assay
[12] = Homo sapiens, NCI-H358, H358, dose-response assay, read-out: Calculated IC50
[13] = Homo sapiens, NCI-H460, H460, dose-response assay, read-out: Calculated IC50
[14] = PC9 GR4, dose-response assay, read-out: Calculated IC50
[15] = H460, dose-response assay, read-out: Calculated IC50

Row | IC50 (PC9 cells [2]) [µM] | IC50 (PC9 GR4 cells [1]; [10]) [µM] | IC50 (H460 cells; [13]) [µM] | Compound | mitochondrial function (basal respiration, maximal respiration, ATP production; OCR) [3] | cell survival in the presence of statins [6] | IC50 (PC9 GR4 cells [1]; [14]) [µM] | mitochondrial respiration in cells treated with ABL001 and simvastatin (MVA rescue and its reversal) [3] | IC50 (PC9 cells [7]) [µM] | IC50 (H460 cells; [15]) [µM] | other results
1 | 0.001 | 0.001 | 0.0005 | CC(=O)O[C@@]12CO[C@@H]1C[C@H](O)[C@@]1(C)C(=O)[C@H](O)C3=C(C)[C@@H](OC(=O)[C@H](O)[C@@H](NC(=O)OC(C)(C)C)c4ccccc4)C[C@@](O)([C@@H](OC(=O)c4ccccc4)[C@H]21)C3(C)C [Docetaxel, docetaxel] | did not significantly impair | did not affect cell survival |  |  |  |  | IC50 (PC9 BrM3 cells; [11]): 0.001 µM; IC50 (H358 cells; [12]): 0.001 µM
2 |  |  |  | COC(=O)[C@H](CCSC)NC(=O)c1ccc(NC[C@@H](N)CS)cc1-c1ccccc1 [FTI-277] |  |  | 50 | minimal effect | 50 | 15 | cell survival on co-treatment with ABL001 ([6]; 72 hr): only slightly decreased
3 |  |  |  | CC(C)n1c(/C=C/C(O)CC(O)CC(=O)O)c(-c2ccc(F)cc2)c2ccccc21 (stereo not shown) [Fluvastatin] |  |  | 2 |  | 2 | 4 | IC50 (PC9 BrM3 cells; PC9 BrM3, dose-response assay): 2 µM; IC50 (H358 cells; H358, dose-response assay, read-out: Calculated IC50): 4 µM
4 |  |  |  | CC(C)=CCC/C(C)=C/CC/C(C)=C/CC/C(C)=C/COP(=O)(O)OP(=O)(O)O [GGPP, geranylgeranyl diphosphate] |  |  |  |  |  |  | rescue of cell survival in cells co-treated with ABL001 and simvastatin [6]: preferentially rescued cell viability
5 |  |  |  | COC(=O)[C@H](CC(C)C)NC(=O)c1ccc(NC[C@@H](N)CS)cc1-c1cccc2ccccc12 [GGTI-298] |  |  | 20 | negated the MVA rescue | 20 | 15 | cell survival on co-treatment with ABL001 ([6]; 72 hr): significantly impaired
6 |  |  |  | COc1cc2ncnc(Nc3ccc(F)c(Cl)c3)c2cc1OCCCN1CCOCC1 [Gefitinib, gefitinib] | not impaired | did not affect cell survival |  |  |  |  | 
7 |  |  |  | C[C@@](O)(CCO)CC(=O)O [MVA, mevalonate] |  |  |  | restored mitochondrial respiration back to baseline |  |  | restoration of BCL-2 family gene expression in combination-treated cells (PC9 GR4 cells [8]): restored gene expression back to baseline; rescue of cell survival in cells co-treated with ABL001 and simvastatin [6]: could rescue cell survival; reversal of cytochrome c release ([9]; PC9 GR4, 500 μM MVA added to ABL001 and simvastatin): reversed; prevention of PARP and caspase-3 cleavage in cells co-treated with ABL001 and simvastatin ([9]; metabolite supplement): prevented cleavage of PARP and caspase-3
8 | 2 | 2 | 2 | Cc1cn(-c2cc(NC(=O)c3ccc(C)c(Nc4nccc(-c5cccnc5)n4)c3)cc(C(F)(F)F)c2)cn1 [Nilotinib] | inability of Nilotinib to inhibit mitochondria function |  |  |  |  |  | cell viability on co-treatment with simvastatin or fluvastatin ([6]; PC9 GR4 and H460, sublethal doses, 72 hr): did not promote additive or synergistic decreases in cell viability
9 | 4 | 4 | 12 | CCC(C)(C)C(=O)O[C@H]1C[C@@H](C)C=C2C=C[C@H](C)[C@H](CC[C@@H]3C[C@@H](O)CC(=O)O3)[C@H]21 [Simvastatin, simvastatin] |  |  |  |  |  |  | IC50 (PC9 BrM3 cells; [11]): 4 µM; IC50 (H358 cells; [12]): 12 µM

Row | Compound | IC50 (PC9 cells [2]) [µM] | IC50 (PC9 GR4 cells [1]; [10]) [µM] | IC50 (H460 cells; [13]) [µM] | mitochondrial function (basal respiration, maximal respiration, ATP production; OCR) [3] | cell survival in the presence of statins [6] | IC50 (PC9 GR4 cells [1]; [14]) [µM] | mitochondrial respiration in cells treated with ABL001 and simvastatin (MVA rescue and its reversal) [3] | IC50 (PC9 cells [7]) [µM] | IC50 (H460 cells; [15]) [µM] | other results
10 | O=C(Nc1ccc(OC(F)(F)Cl)cc1)c1cnc(N2CC[C@@H](O)C2)c(-c2ccn[nH]2)c1 [ABL001, Asciminib] | 7.5 |  |  | greatly decreased | decreased cell survival |  |  |  |  | IC50 (PC9 GR4 cells [1]; Homo sapiens, PC9/GR4, read-out: Calculated IC50): 7.5 µM; IC50 (PC9 BrM3 cells; Homo sapiens): 7.5 µM; tolerability ([4]; mouse, in vivo, po): well tolerated; body weight ([4]; oral gavage, mice): does not induce weight loss; crossing of the BBB ([4]; preclinical mouse models): shown to cross the BBB; mitochondrial reactive oxygen species (MitoROS) levels [5]: increased; mitochondrial morphology (length and width, network) (PC9 and H460 cells): marginal, nonsignificant increase; IC50 (H358 cells; Homo sapiens, NCI-H358, read-out: Calculated IC50): 15 µM; IC50 (H460 cells; Homo sapiens, NCI-H460, read-out: Calculated IC50): 15 µM
